# Test results from PubChem BioAssay AID1963428 (Molecular Pharmacology Branch, DTP, NCI, 2024).
# System: 171881-019-R-J1-PDC complex spheroid growth, % test/control
# Assay: Anticancer human tumor 171881-019-R-J1-PDC patient-derived invasive breast carcinoma cell line growth inhibition [Asc]
# Conditions: for IC50: curve of first compound; for viability, T/C: stronger effect = lower value
# Method in brief: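 Complex solid-tumor spheroids incorporating human endothelial and mesenchymal stem cells received single agents or combinations over half-log dilution ranges anchored to clinical Cmax.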
# [1] = second compound 0.1 µM, first compound 0.0316 µM
# [2] = second compound 0.1 µM, first compound 0.1 µM
# [3] = second compound 0.1 µM, first compound 0.316 µM
# [4] = second compound 0.1 µM, first compound 1 µM
# [5] = second compound 0.1 µM, first compound 3.16 µM
# [6] = second compound 0.1 µM, first compound 10 µM
# [7] = second compound 0.316 µM, first compound 0.0316 µM
# [8] = second compound 0.316 µM, first compound 0.1 µM
# [9] = second compound 0.316 µM, first compound 0.316 µM
# [10] = second compound 0.316 µM, first compound 1 µM
# [11] = second compound 0.316 µM, first compound 3.16 µM
# [12] = second compound 0.316 µM, first compound 10 µM
# [13] = second compound 1 µM, first compound 0.0316 µM
# [14] = second compound 1 µM, first compound 0.1 µM
# [15] = second compound 1 µM, first compound 0.316 µM
# [16] = second compound 1 µM, first compound 1 µM
# [17] = second compound 1 µM, first compound 3.16 µM
# [18] = second compound 1 µM, first compound 10 µM
# [19] = second compound 3.16 µM, first compound 0.0316 µM
# [20] = second compound 3.16 µM, first compound 0.1 µM
# [21] = second compound 3.16 µM, first compound 0.316 µM
# [22] = second compound 3.16 µM, first compound 1 µM
# [23] = second compound 3.16 µM, first compound 3.16 µM
# [24] = second compound 3.16 µM, first compound 10 µM
# [25] = second compound 10 µM, first compound 0.0316 µM
# [26] = second compound 10 µM, first compound 0.1 µM
# [27] = second compound 10 µM, first compound 0.316 µM
# [28] = second compound 10 µM, first compound 1 µM
# [29] = second compound 10 µM, first compound 3.16 µM
# [30] = second compound 10 µM, first compound 10 µM
# 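Wherever viability, T/C is given: spheroids exposed to compounds for 7 days.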
smiles,measurement,setting,value
Cn1ncnc1[C@H]1c2n[nH]c(=O)c3cc(F)cc(c23)N[C@@H]1c1ccc(F)cc1 + CCN1C(C(=O)NC23CCC(C(=O)O)(CC2)CC3)C(c2cccc(Cl)c2F)C2(C(=O)Nc3cc(Cl)ccc32)C12CCCCC2,IC50,second compound 0.03 µM,> 0.1 µM
same,IC50,second compound 0.0949 µM,> 0.1 µM
same,IC50,second compound 0.3 µM,> 0.1 µM
same,IC50,second compound 0.949 µM,> 0.1 µM
same,IC50,second compound 3 µM,> 0.1 µM
same,"viability, T/C","second compound 0.03 µM, first compound 0.000316 µM",93.2%
same,"viability, T/C","second compound 0.03 µM, first compound 0.001 µM",110%
same,"viability, T/C","second compound 0.03 µM, first compound 0.00316 µM",107%
same,"viability, T/C","second compound 0.03 µM, first compound 0.01 µM",103%
same,"viability, T/C","second compound 0.03 µM, first compound 0.0316 µM",105%
same,"viability, T/C","second compound 0.03 µM, first compound 0.1 µM",96.8%
same,"viability, T/C","second compound 0.0949 µM, first compound 0.000316 µM",102%
same,"viability, T/C","second compound 0.0949 µM, first compound 0.001 µM",95.5%
same,"viability, T/C","second compound 0.0949 µM, first compound 0.00316 µM",95.8%
same,"viability, T/C","second compound 0.0949 µM, first compound 0.01 µM",111%
same,"viability, T/C","second compound 0.0949 µM, first compound 0.0316 µM",104%
same,"viability, T/C","second compound 0.0949 µM, first compound 0.1 µM",114%
same,"viability, T/C","second compound 0.3 µM, first compound 0.000316 µM",99.5%
same,"viability, T/C","second compound 0.3 µM, first compound 0.001 µM",126%
same,"viability, T/C","second compound 0.3 µM, first compound 0.00316 µM",101%
same,"viability, T/C","second compound 0.3 µM, first compound 0.01 µM",104%
same,"viability, T/C","second compound 0.3 µM, first compound 0.0316 µM",109%
same,"viability, T/C","second compound 0.3 µM, first compound 0.1 µM",109%
same,"viability, T/C","second compound 0.949 µM, first compound 0.000316 µM",115%
same,"viability, T/C","second compound 0.949 µM, first compound 0.001 µM",115%
same,"viability, T/C","second compound 0.949 µM, first compound 0.00316 µM",120%
same,"viability, T/C","second compound 0.949 µM, first compound 0.01 µM",108%
same,"viability, T/C","second compound 0.949 µM, first compound 0.0316 µM",115%
same,"viability, T/C","second compound 0.949 µM, first compound 0.1 µM",120%
same,"viability, T/C","second compound 3 µM, first compound 0.000316 µM",119%
same,"viability, T/C","second compound 3 µM, first compound 0.001 µM",111%
same,"viability, T/C","second compound 3 µM, first compound 0.00316 µM",115%
same,"viability, T/C","second compound 3 µM, first compound 0.01 µM",110%
same,"viability, T/C","second compound 3 µM, first compound 0.0316 µM",110%
same,"viability, T/C","second compound 3 µM, first compound 0.1 µM",114%
C#Cc1c(F)ccc2cc(O)cc(-c3ncc4c(N5CC6CCC(C5)N6)nc(OCC56CCCN5CC(F)C6)nc4c3F)c12 (stereo not given) + Cc1c(S(C)(=O)=O)c(-c2cc(F)cc(N3CCN(c4ccc(NS(=O)(=O)c5ccc(NC(CCN6CCC(C(=O)OCCCP(=O)(O)O)CC6)CSc6ccccc6)c(S(=O)(=O)C(F)(F)F)c5)cc4)CC3)c2)c(-c2ccc(Cl)cc2)n1C(C)C,IC50,second compound 0.1 µM,> 10 µM
same,IC50,second compound 0.316 µM,> 10 µM
same,IC50,second compound 1 µM,> 10 µM
same,IC50,second compound 3.16 µM,6.86 µM
same,IC50,second compound 10 µM,4 µM
same,"viability, T/C",[1],103%
same,"viability, T/C",[2],116%
same,"viability, T/C",[3],152%
same,"viability, T/C",[4],167%
same,"viability, T/C",[5],154%
same,"viability, T/C",[6],111%
same,"viability, T/C",[7],138%
same,"viability, T/C",[8],169%
same,"viability, T/C",[9],219%
same,"viability, T/C",[10],165%
same,"viability, T/C",[11],112%
same,"viability, T/C",[12],86%
same,"viability, T/C",[13],162%
same,"viability, T/C",[14],177%
same,"viability, T/C",[15],165%
same,"viability, T/C",[16],131%
same,"viability, T/C",[17],84.3%
same,"viability, T/C",[18],61.1%
same,"viability, T/C",[19],179%
same,"viability, T/C",[20],179%
same,"viability, T/C",[21],155%
same,"viability, T/C",[22],97.6%
same,"viability, T/C",[23],63.2%
same,"viability, T/C",[24],43%
same,"viability, T/C",[25],179%
same,"viability, T/C",[26],186%
same,"viability, T/C",[27],135%
same,"viability, T/C",[28],91.5%
same,"viability, T/C",[29],58%
same,"viability, T/C",[30],33.9%
COc1c(OCCCN2CCOCC2)ccc2c3n(c(=NC(=O)c4cnc(N)nc4)nc12)CCN3 + Cc1c(S(C)(=O)=O)c(-c2cc(F)cc(N3CCN(c4ccc(NS(=O)(=O)c5ccc(NC(CCN6CCC(C(=O)OCCCP(=O)(O)O)CC6)CSc6ccccc6)c(S(=O)(=O)C(F)(F)F)c5)cc4)CC3)c2)c(-c2ccc(Cl)cc2)n1C(C)C,IC50,second compound 0.1 µM,0.0218 µM
same,IC50,second compound 0.316 µM,0.0138 µM
same,IC50,second compound 1 µM,0.00937 µM
same,IC50,second compound 3.16 µM,0.00499 µM
same,IC50,second compound 10 µM,0.0046 µM
same,"viability, T/C","second compound 0.1 µM, first compound 0.00316 µM",148%
same,"viability, T/C","second compound 0.1 µM, first compound 0.01 µM",91.5%
same,"viability, T/C",[1],30.1%
same,"viability, T/C",[2],7.28%
same,"viability, T/C",[3],1.11%
same,"viability, T/C",[4],0.49%
same,"viability, T/C","second compound 0.316 µM, first compound 0.00316 µM",129%
same,"viability, T/C","second compound 0.316 µM, first compound 0.01 µM",62.6%
same,"viability, T/C",[7],17%
same,"viability, T/C",[8],5.34%
same,"viability, T/C",[9],0.77%
same,"viability, T/C",[10],0.4%
same,"viability, T/C","second compound 1 µM, first compound 0.00316 µM",102%
same,"viability, T/C","second compound 1 µM, first compound 0.01 µM",46.9%
same,"viability, T/C",[13],12.7%
same,"viability, T/C",[14],3.92%
same,"viability, T/C",[15],0.8%
same,"viability, T/C",[16],0.9%
same,"viability, T/C","second compound 3.16 µM, first compound 0.00316 µM",64.2%
same,"viability, T/C","second compound 3.16 µM, first compound 0.01 µM",28.2%
same,"viability, T/C",[19],8.79%
same,"viability, T/C",[20],1.69%
same,"viability, T/C",[21],0.26%
same,"viability, T/C",[22],0.49%
same,"viability, T/C","second compound 10 µM, first compound 0.00316 µM",63.7%
same,"viability, T/C","second compound 10 µM, first compound 0.01 µM",21.6%
same,"viability, T/C",[25],9.29%
same,"viability, T/C",[26],0.84%
same,"viability, T/C",[27],0.24%
same,"viability, T/C",[28],1.51%
C=CC(=O)N1CCN(c2nc(=O)n(-c3c(C)ccnc3C(C)C)c3nc(-c4c(O)cccc4F)c(F)cc23)C(C)C1 (stereo not given) + Cc1c(S(C)(=O)=O)c(-c2cc(F)cc(N3CCN(c4ccc(NS(=O)(=O)c5ccc(NC(CCN6CCC(C(=O)OCCCP(=O)(O)O)CC6)CSc6ccccc6)c(S(=O)(=O)C(F)(F)F)c5)cc4)CC3)c2)c(-c2ccc(Cl)cc2)n1C(C)C,IC50,second compound 0.1 µM,> 10 µM
same,IC50,second compound 0.316 µM,> 10 µM
same,IC50,second compound 1 µM,> 10 µM
same,IC50,second compound 3.16 µM,> 10 µM
same,IC50,second compound 10 µM,> 10 µM
same,"viability, T/C",[1],92.3%
same,"viability, T/C",[2],111%
same,"viability, T/C",[3],100%
same,"viability, T/C",[4],86%
same,"viability, T/C",[5],84.9%
same,"viability, T/C",[6],79.6%
same,"viability, T/C",[7],128%
same,"viability, T/C",[8],114%
same,"viability, T/C",[9],118%
same,"viability, T/C",[10],86.9%
same,"viability, T/C",[11],78.9%
same,"viability, T/C",[12],87.7%
same,"viability, T/C",[13],119%
same,"viability, T/C",[14],123%
same,"viability, T/C",[15],125%
same,"viability, T/C",[16],104%
same,"viability, T/C",[17],78.7%
same,"viability, T/C",[18],90.9%
same,"viability, T/C",[19],153%
same,"viability, T/C",[20],122%
same,"viability, T/C",[21],138%
same,"viability, T/C",[22],133%
same,"viability, T/C",[23],99.2%
same,"viability, T/C",[24],99%
same,"viability, T/C",[25],165%
same,"viability, T/C",[26],186%
same,"viability, T/C",[27],165%
same,"viability, T/C",[28],187%
same,"viability, T/C",[29],133%
same,"viability, T/C",[30],105%
